Consider 28 molecules from patent US9981916B2 (Genentech, Inc., priority 2013, dated 2018).

The assay addresses T1, RORc ligand binding domain (Homo sapiens, UniProt P51449).
T1 construct: host or cells: E. coli
T1 sequence (P51449 269-508 limits assumed): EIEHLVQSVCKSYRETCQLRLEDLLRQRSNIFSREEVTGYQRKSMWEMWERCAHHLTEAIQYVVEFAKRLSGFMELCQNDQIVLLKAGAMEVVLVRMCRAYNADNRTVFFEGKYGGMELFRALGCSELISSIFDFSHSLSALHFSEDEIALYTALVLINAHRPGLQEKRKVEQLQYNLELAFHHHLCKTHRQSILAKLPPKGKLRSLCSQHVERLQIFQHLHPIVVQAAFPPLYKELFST
The assay can be described thus: In vitro RORc ligand binding assay (25-[3H]hydroxycholesterol displacement, filter binding). To be noted: 6 nM 25-[3H]hydroxycholesterol, 0.6 ug/mL RORc receptor, 3 h at 25° C. In outline:
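Compounds in 5% DMSO, either dose-response or screened at 1 and 10 uM, competed with 6 nM 25-[3H]hydroxycholesterol for 0.6 ug/mL RORc over 3 h at 25° C (HEPES pH 7.4, NaCl, MgCl2, DTT, BSA buffer). Bound tracer was filter-harvested and counted; nonspecific binding came from 1 uM 25-hydroxycholesterol.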

As for `CC1(C)[C@@H]2CC[C@@]1(c1nnco1)c1nnc(-c3c(F)cccc3F)cc12` [Example 110, (5S,8S)-3-(2,6-difluorophenyl)-9,9-dimethyl-8-(1,3,4-oxadiazol-2-yl)-5,6,7,8-tetrahydro-5,8-methanocinnoline], the IC50 (as a rule, the concentration that inhibits the measured activity by half) is 0.186 µM.
The figure for `CC1(C)[C@@H]2CC[C@@]1(CN1CCN(CCN3CCOCC3)C1=O)c1nnc(-c3ccccc3F)cc12` [Example 48, 1-{[(5S,8R)-3-(2-fluorophenyl)-9,9-dimethyl-6,7-dihydro-5,8-methanocinnolin-8(5H)-yl]methyl}-3-[2-(morpholin-4-yl)ethyl]imidazolidin-2-one] is 0.643 µM; for `Cc1cc([C@@]23CC[C@@H](c4cc(-c5c(F)cccc5F)nnc42)C3(C)C)[nH]n1` [Example 191, (5R,8S)-3-(2,6-difluorophenyl)-9,9-dimethyl-8-(3-methyl-1H-pyrazol-5-yl)-5,6,7,8-tetrahydro-5,8-methanocinnoline] it is 0.123 µM.
The figure for `CC(C)(C#N)NC(=O)[C@@]12CC[C@@H](c3cc(-c4ccccc4F)nnc31)C2(C)C` [Example 174, (5R,8R)-N-(2-cyanopropan-2-yl)-3-(2-fluorophenyl)-9,9-dimethyl-5,6,7,8-tetrahydro-5,8-methanocinnoline-8-carboxamide] is 3.08 µM; for `CC1(C)[C@@H]2CC[C@@]1(C(=O)N1CC(CC#N)C1)c1nnc(-c3c(F)cccc3F)cc12` [Example 264, 2-(1-((5S,8S)-3-(2,6-difluorophenyl)-9,9-dimethyl-5,6,7,8-tetrahydro-5,8-methanocinnoline-8-carbonyl)azetidin-3-yl)acetonitrile] it is 0.307 µM; for `CC1(C)[C@@H]2CC[C@@]1(C(=O)N1CCCC1C(F)(F)F)c1nnc(-c3c(F)cccc3F)cc12` (stereo partly drawn) [Example 224, ((5S,8S)-3-(2,6-difluorophenyl)-9,9-dimethyl-5,6,7,8-tetrahydro-5,8-methanocinnolin-8-yl)(2-(trifluoromethyl)pyrrolidin-1-yl)methanone] it is 0.327 µM.
The figure for `CC1(C)[C@@H]2CC[C@@]1(C(=O)Nc1ccc(C#N)cn1)c1nnc(-c3c(F)cccc3F)cc12` [Example 205, (5S,8S)-N-(5-cyanopyridin-2-yl)-3-(2,6-difluorophenyl)-9,9-dimethyl-5,6,7,8-tetrahydro-5,8-methanocinnoline-8-carboxamide] is 2.82 µM; for `Cc1nc([C@@]23CC[C@@H](c4cc(-c5c(F)cccc5F)nnc42)C3(C)C)co1` [Example 192, 4-((5R,8S)-3-(2,6-difluorophenyl)-9,9-dimethyl-5,6,7,8-tetrahydro-5,8-methanocinnolin-8-yl)-2-methyloxazole] it is 0.202 µM.
Regarding `Cc1cnc([C@@]23CC[C@@H](c4cc(-c5c(F)cccc5F)nnc42)C3(C)C)o1` [Example 112, (5R,8R)-3-(2,6-difluorophenyl)-9,9-dimethyl-8-(5-methyl-1,3-oxazol-2-yl)-5,6,7,8-tetrahydro-5,8-methanocinnoline], the half-maximal inhibitory concentration (IC50) stood at 0.027 µM.
`Cc1noc(NC(=O)[C@]23CC[C@H](c4cc(-c5c(F)cccc5F)nnc42)C3(C)C)n1` [Example 85, (5S,8S)-3-(2,6-difluorophenyl)-9,9-dimethyl-N-(3-methyl-1,2,4-oxadiazol-5-yl)-6,7-dihydro-5,8-methanocinnoline-8(5H)-carboxamide] registered an IC50 of 5.65 µM.
Take `CC(C)CNC(=O)[C@]12CC[C@H](c3cc(-c4c(F)cccc4F)nnc31)C2(C)C` [Example 209, (5S,8S)-3-(2,6-difluorophenyl)-N-isobutyl-9,9-dimethyl-5,6,7,8-tetrahydro-5,8-methanocinnoline-8-carboxamide]: the IC50 was found to be 1.55 µM.
Molecule `CC1(C)[C@H]2CC[C@]1(c1ncn[nH]1)c1nnc(-c3c(F)cccc3F)cc12` [Example 185, (5R,8R)-3-(2,6-difluorophenyl)-9,9-dimethyl-8-(1H-1,2,4-triazol-5-yl)-5,6,7,8-tetrahydro-5,8-methanocinnoline] yielded an IC50 of 2.2 µM.
Molecule `Cn1ncnc1[C@@]12CC[C@@H](c3cc(-c4c(F)cccc4F)nnc31)C2(C)C` [Example 251, (5R,8R)-3-(2,6-difluorophenyl)-9,9-dimethyl-8-(1-methyl-1H-1,2,4-triazol-5-yl)-5,6,7,8-tetrahydro-5,8-methanocinnoline] registered a 50% inhibitory concentration (IC50) of 0.61 µM.
In turn, `CC(=O)NC(C)(C)[C@@]12CC[C@@H](c3cc(-c4c(F)cccc4F)nnc31)C2(C)C` [Example 321, N-(2-((5R,8S)-3-(2,6-difluorophenyl)-9,9-dimethyl-5,6,7,8-tetrahydro-5,8-methanocinnolin-8-yl)propan-2-yl)acetamide] yielded an IC50 of 0.079 µM.
Regarding `CCOC(=O)N(CC)C[C@@]12CC[C@@H](c3cc(-c4c(F)cccc4F)nnc31)C2(C)C` [Example 277, ethyl (((5R,8S)-3-(2,6-difluorophenyl)-9,9-dimethyl-5,6,7,8-tetrahydro-5,8-methanocinnolin-8-yl)methyl)(ethyl) carbamate], the IC50 worked out at 0.005 µM.
In turn, `Cc1nnc(N(C[C@@]23CC[C@@H](c4cc(-c5c(F)cccc5F)nnc42)C3(C)C)C(C)C)o1` [Example 152, N-(((5R,8S)-3-(2,6-difluorophenyl)-9,9-dimethyl-5,6,7,8-tetrahydro-5,8-methanocinnolin-8-yl)methyl)-N-isopropyl-5-methyl-1,3,4-oxadiazol-2-amine] displayed an IC50 of 0.019 µM.
With `CN(C)C(=O)N(C)[C@@]12CC[C@@H](c3cc(-c4c(F)cccc4F)nnc31)C2(C)C` [Example 325, 1-((5R,8R)-3-(2,6-difluorophenyl)-9,9-dimethyl-5,6,7,8-tetrahydro-5,8-methanocinnolin-8-yl)-1,3,3-trimethylurea] the figure was 0.944 µM; with `CC1(C)[C@H]2CC[C@]1(CN1CCCS1(=O)=O)c1nnc(-c3c(F)cccc3F)cc12` [Example 284, 2-(((5R,8S)-3-(2,6-difluorophenyl)-9,9-dimethyl-5,6,7,8-tetrahydro-5,8-methanocinnolin-8-yl)methyl)isothiazolidine 1,1-dioxide], 0.856 µM; with `COC1CN(C(=O)[C@@]23CC[C@@H](c4cc(-c5c(F)cccc5F)nnc42)C3(C)C)C1` [Example 188, ((5R,8R)-3-(2,6-difluorophenyl)-9,9-dimethyl-5,6,7,8-tetrahydro-5,8-methanocinnolin-8-yl)(3-methoxyazetidin-1-yl)methanone], 2.46 µM.
In turn, `CC1(C)[C@@H]2CC[C@@]1(C(=O)NCC1CC1)c1nnc(-c3ccccc3F)cc12` [Example 132, (5S,8S)-N-(cyclopropylmethyl)-3-(2-fluorophenyl)-9,9-dimethyl-5,6,7,8-tetrahydro-5,8-methanocinnoline-8-carboxamide] yielded a 50% inhibitory concentration (IC50) of 0.707 µM.
With `CC1(C)[C@@H]2CC[C@@]1(C(=O)NCC(F)F)c1nnc(-c3c(F)cccc3F)cc12` [Example 210, (5S,8S)-N-(2,2-difluoroethyl)-3-(2,6-difluorophenyl)-9,9-dimethyl-5,6,7,8-tetrahydro-5,8-methanocinnoline-8-carboxamide] the figure was 0.528 µM.
`CC1(C)[C@H]2CC[C@]1(C(=O)NC1CCCC1)c1nnc(-c3ccccc3F)cc12` [Example 175, (5R,8R)-N-cyclopentyl-3-(2-fluorophenyl)-9,9-dimethyl-5,6,7,8-tetrahydro-5,8-methanocinnoline-8-carboxamide] registered a half-inhibitory concentration (IC50) of 1.16 µM.
With `CCN(C[C@@]12CC[C@@H](c3cc(-c4c(F)cccc4F)nnc31)C2(C)C)c1nccc(=O)[nH]1` [Example 302, 2-((((5R,8S)-3-(2,6-difluorophenyl)-9,9-dimethyl-5,6,7,8-tetrahydro-5,8-methanocinnolin-8-yl)methyl)(ethyl)amino) pyrimidin-4(3H)-one] the figure was 0.108 µM; with `CC1(C)[C@H]2CC[C@]1(CN(CCO)c1ncccn1)c1nnc(-c3c(F)cccc3F)cc12` [Example 272, 2-((((5R,8S)-3-(2,6-difluorophenyl)-9,9-dimethyl-5,6,7,8-tetrahydro-5,8-methanocinnolin-8-yl)methyl)(pyrimidin-2-yl)amino)ethanol], 0.124 µM.
With `CC1(C)[C@H]2CC[C@]1(CNCCO)c1nnc(-c3c(F)cccc3F)cc12` [Example 297, 2-((((5R,8S)-3-(2,6-difluorophenyl)-9,9-dimethyl-5,6,7,8-tetrahydro-5,8-methanocinnolin-8-yl)methyl)amino)ethanol], the IC50 was found to be 2.42 µM.
With `CC(C)OC1CN(C(=O)[C@@]23CC[C@@H](c4cc(-c5c(F)cccc5F)nnc42)C3(C)C)C1` [Example 190, ((5R,8R)-3-(2,6-difluorophenyl)-9,9-dimethyl-5,6,7,8-tetrahydro-5,8-methanocinnolin-8-yl)(3-isopropoxyazetidin-1-yl)methanone] the figure was 1.84 µM; with `CC1(C)[C@H]2CC[C@]1(CNCCC#N)c1nnc(-c3c(F)cccc3F)cc12` [Example 309, 3-((((5R,8S)-3-(2,6-difluorophenyl)-9,9-dimethyl-5,6,7,8-tetrahydro-5,8-methanocinnolin-8-yl)methyl)amino) propanenitrite], 0.59 µM; with `CC1(C)[C@H]2CC[C@]1(Cc1noc(O)n1)c1nnc(-c3c(F)cccc3F)cc12` [Example 58, 3-{[(5R,8R)-3-(2,6-difluorophenyl)-9,9-dimethyl-6,7-dihydro-5,8-methanocinnolin-8(5H)-yl]methyl}-1,2,4-oxadiazol-5-ol], 1.05 µM.
